# Data reported in patent US7304174B2, “CaSR antagonist” (Japan Tobacco Inc., priority 2003, dated 2007).
# Legend:
# CYP2D6 = target: T1, CYP2D6 (Homo sapiens, UniProt P10635); assay: Metabolic enzyme CYP2D6 inhibitory activity (inhibition measurement kit); type: in vitro ADME; details: enzyme activity free of test compound as 100%; >10 means over 10 μM
# T1 construct: purchased BD Bioscience
# Method: Using a metabolic enzyme CYP2D6 inhibition measurement kit (BD Bioscience) and following the manual of the kit, the inhibitory activity of the test compound was measured. With the enzyme activity free of the test compound as 100%, the concentration (IC50) showing 50% inhibition was determined. The results are shown in Table 63 and Table 64, wherein “>10” means over 10 μM.
# human calcium receptor = target: T2, human calcium receptor (Homo sapiens, UniProt P41180); assay: Evaluation of antagonistic action on calcium receptor using reporter gene (luciferase); type: cell-based; details: transformed rat adrenal derived cells, 5 mM calcium chloride, culture 4 hrs, luciferase activity; read-out: Reporter gene assay (IC50, concentration showing 50% inhibitory rate)
# T2 construct: expressed in transfected cells; host or cells: cell strain derived from rat adrenal, co-transformed with luciferase cDNA
# T2 sequence (P41180 20-1078): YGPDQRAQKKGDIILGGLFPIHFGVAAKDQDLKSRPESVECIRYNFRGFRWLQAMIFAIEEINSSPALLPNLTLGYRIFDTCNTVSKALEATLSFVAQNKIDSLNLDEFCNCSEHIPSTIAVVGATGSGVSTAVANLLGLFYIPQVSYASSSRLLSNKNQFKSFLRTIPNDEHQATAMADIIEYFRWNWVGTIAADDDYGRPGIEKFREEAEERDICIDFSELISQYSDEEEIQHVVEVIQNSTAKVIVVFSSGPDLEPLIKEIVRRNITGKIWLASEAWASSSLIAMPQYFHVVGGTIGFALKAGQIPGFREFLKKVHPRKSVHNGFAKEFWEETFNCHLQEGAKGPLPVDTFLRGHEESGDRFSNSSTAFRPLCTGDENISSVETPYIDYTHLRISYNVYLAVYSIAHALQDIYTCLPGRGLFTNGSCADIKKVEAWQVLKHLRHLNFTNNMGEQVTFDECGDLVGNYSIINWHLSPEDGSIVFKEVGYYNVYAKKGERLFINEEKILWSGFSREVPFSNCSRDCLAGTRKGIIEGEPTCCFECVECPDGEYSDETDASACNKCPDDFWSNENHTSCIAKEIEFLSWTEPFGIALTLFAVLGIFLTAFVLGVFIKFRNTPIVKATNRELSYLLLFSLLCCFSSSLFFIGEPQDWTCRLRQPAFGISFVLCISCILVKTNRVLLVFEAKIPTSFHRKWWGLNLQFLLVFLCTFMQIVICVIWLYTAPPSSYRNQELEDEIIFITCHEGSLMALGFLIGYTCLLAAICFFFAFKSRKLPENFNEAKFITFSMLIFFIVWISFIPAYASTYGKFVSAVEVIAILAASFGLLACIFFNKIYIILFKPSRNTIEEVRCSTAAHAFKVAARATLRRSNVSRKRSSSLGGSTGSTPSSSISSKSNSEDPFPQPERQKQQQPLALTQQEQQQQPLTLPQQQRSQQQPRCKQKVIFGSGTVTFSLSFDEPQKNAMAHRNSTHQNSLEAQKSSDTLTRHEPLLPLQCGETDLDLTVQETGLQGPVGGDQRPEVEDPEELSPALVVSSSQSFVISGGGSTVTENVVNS
# How it was run: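 Rat adrenal-derived cells transfected with luciferase and human calcium receptor cDNA, in F12 with 0.5% dialyzed horse serum and 0.25% dialyzed fetal bovine serum. Luciferase luminescence gave % inhibition vs control and blank; IC50 at 50% inhibition.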
# PTH secretion = PTH secretion action, Experimental Example 2 (serum PTH after oral administration); type: in vivo, male SD rats; details: test compound administration group, 1 mg/5 ml/kg oral, rats fasted 20 hr
# Method: The test compound was orally administered to 5 to 9-week-old male SD rats (Charles River Japan, Inc.) fasted for 20 hr, using a solvent (0.5% methyl cellulose solution) at a dose of 1 mg/5 ml/kg. A solvent alone was orally administered to the control group at a dose of 5 ml/kg. The blood was drawn from the tail vein immediately before and, 15 min, 30 min, 60 min and 120 min after the administration of the test compound, and serum was obtained. The serum PTH concentration was measured using rat PTH ELISA kit (Amersham Biosciences).
# T1 sequence (P10635 whole entry): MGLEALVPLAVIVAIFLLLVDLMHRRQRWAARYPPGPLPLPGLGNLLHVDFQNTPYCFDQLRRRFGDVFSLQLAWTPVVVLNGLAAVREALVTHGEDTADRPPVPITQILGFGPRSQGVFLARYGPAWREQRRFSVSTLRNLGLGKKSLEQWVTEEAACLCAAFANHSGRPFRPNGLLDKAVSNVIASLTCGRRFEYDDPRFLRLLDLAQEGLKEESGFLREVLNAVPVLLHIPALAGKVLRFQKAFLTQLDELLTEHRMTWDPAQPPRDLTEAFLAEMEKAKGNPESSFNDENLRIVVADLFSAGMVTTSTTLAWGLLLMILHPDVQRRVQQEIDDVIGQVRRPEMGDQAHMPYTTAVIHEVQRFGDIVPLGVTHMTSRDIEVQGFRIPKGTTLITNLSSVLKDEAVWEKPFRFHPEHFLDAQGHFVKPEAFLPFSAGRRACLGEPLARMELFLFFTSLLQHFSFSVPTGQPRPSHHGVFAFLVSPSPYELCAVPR
SMILES,IC50 (CYP2D6),IC50 (human calcium receptor),Serum PTH concentration 15 min later (PTH secretion),Serum PTH concentration 30 min later (PTH secretion),Serum PTH concentration 60 min later (PTH secretion),Serum PTH concentration 120 min later (PTH secretion)
"COc1cc(-c2ccccc2[C@@H](C)OC[C@H](O)CNC(C)(C)Cc2ccc(C)c(F)c2)ccc1C(=O)O [Example 1-80, 2′-[1-[(2R)-3-[[1-(3-fluoro-4-methylphenyl)-2-methylpropan-2-yl]amino]-2-hydroxypropoxy]ethyl]-3-methoxybiphenyl-4-carboxylic acid]",> 10000 nM,27 nM,,,,
"C[C@@H](OC[C@H](O)CNC(C)(C)Cc1ccc2ccccc2c1)c1ccccc1-c1ccc(C(=O)O)c(F)c1 [Example 1-59, 3-fluoro-2′-[1-[(2R)-3-[[1-(naphthalen-2-yl)-2-methylpropan-2-yl]amino]-2-hydroxypropoxy]ethyl]biphenyl-4-carboxylic acid]",> 10000 nM,16 nM,,,,
"COc1cc(C(=O)O)ccc1-c1ccccc1[C@@H](C)OC[C@H](O)CNC(C)(C)Cc1ccc2ccccc2c1 [Example 1-27, 2′-[1-[(2R)-3-[[1-(naphthalen-2-yl)-2-methylpropan-2-yl]amino]-2-hydroxypropoxy]ethyl]-2-methoxybiphenyl-4-carboxylic acid]",> 10000 nM,14 nM,,,,
"CCc1cc(-c2ccccc2[C@@H](C)OC[C@H](O)CNC(C)(C)Cc2ccc(C)c(F)c2)ccc1C(=O)O [Example 1-33, 3-ethyl-2′-[1-[(2R)-3-[[1-(3-fluoro-4-methylphenyl)-2-methylpropan-2-yl]amino]-2-hydroxypropoxy]ethyl]biphenyl-4-carboxylic acid]",> 10000 nM,5 nM,,,,
"Cc1cc(-c2ccccc2[C@@H](C)OC[C@H](O)CNC(C)(C)Cc2ccc(Cl)cc2F)ccc1C(=O)O [Example 1-6, 2′-[1-[(2R)-3-[[1-(4-chloro-2-fluorophenyl)-2-methylpropan-2-yl]amino]-2-hydroxypropoxy]ethyl]-3-methylbiphenyl-4-carboxylic acid]",,20 nM,28.9 ± 6.9 pg/mL,19.2 ± 3.1 pg/mL,10.0 ± 1.7 pg/mL,8.3 ± 0.6 pg/mL
"C[C@@H](OC[C@H](O)CNC(C)(C)Cc1ccc2ccccc2c1)c1ccccc1-c1ccc(C(=O)O)c(Cl)n1 [Example 1-35, 2-chloro-6-[2-[1-[(2R)-3-[[1-(naphthalen-2-yl)-2-methylpropan-2-yl]amino]-2-hydroxypropoxy]ethyl]phenyl]pyridine-3-carboxylic acid]",> 10000 nM,10 nM,,,,
"CC(OC[C@H](O)CNC(C)(C)Cc1cnc2ccccc2c1)c1ccccc1Oc1ccc(C(=O)O)cc1 (stereo partly drawn) [Example 2-5, 4-[2-[1-[(2R)-3-[[1-(quinolin-3-yl)-2-methylpropan-2-yl]amino]-2-hydroxypropoxy]ethyl]phenoxy]benzoic acid]",> 10000 nM,57 nM,,,,
"CCc1cc(-c2ccccc2[C@@H](C)OC[C@H](O)CNC(C)(C)Cc2ccc3ccccc3c2)ccc1C(=O)O [Example 1-30, 3-ethyl-2′-[1-[(2R)-3-[[1-(naphthalen-2-yl)-2-methylpropan-2-yl]amino]-2-hydroxypropoxy]ethyl]biphenyl-4-carboxylic acid]",,7 nM,26.1 ± 2.3 pg/mL,24.2 ± 3.3 pg/mL,18.2 ± 1.3 pg/mL,13.8 ± 0.6 pg/mL
"Cc1cc(-c2ccccc2[C@@H](C)OC[C@H](O)CNC(C)(C)Cc2ccc(Cl)c(F)c2)ccc1C(=O)O [Example 1-2, 2′-[(1R)-[(2R)-3-[[1-(4-Chloro-3-fluorophenyl)-2-methylpropan-2-yl]amino]-2-hydroxypropoxy]ethyl]-3-methylbiphenyl-4-carboxylic acid]",,13 nM,28.5 ± 5.3 pg/mL,27.1 ± 2.3 pg/mL,10.5 ± 1.3 pg/mL,12.4 ± 1.6 pg/mL
"Cc1ccc(CC(C)(C)NC[C@@H](O)CO[C@H](C)c2ccccc2-c2ccc(C(=O)O)c(C)c2)cc1Cl [Example 1-3, 2′-[1-[(2R)-3-[[1-(3-chloro-4-methylphenyl)-2-methylpropan-2-yl]amino]-2-hydroxypropoxy]ethyl]-3-methylbiphenyl-4-carboxylic acid]",,10 nM,23.8 ± 1.6 pg/mL,25.1 ± 3.9 pg/mL,9.5 ± 0.5 pg/mL,11.6 ± 0.9 pg/mL
CC(OC[C@H](O)CNC(C)(C)Cc1ccc2ccccc2c1)c1ccccc1OCc1ccc(C(=O)O)cc1 (some centres unmarked) [2-22′],,23 nM,,,,
"Cc1cc(-c2ccccc2C(OC[C@H](O)CNC(C)(C)Cc2ccc3ccccc3c2)C2CC2)ccc1C(=O)O (stereo partly drawn) [Example 1-63, 2′-[(cyclopropyl)[(2R)-3-[[1-(naphthalen-2-yl)-2-methylpropan-2-yl]amino]-2-hydroxypropoxy]methyl]-3-methylbiphenyl-4-carboxylic acid]",,16 nM,,,,
"Cc1ccc(CC(C)(C)NC[C@@H](O)CO[C@H](C)c2ccccc2-c2ccc(C(=O)O)c(C)c2)cc1F [Example 1-15, 2′-[1-[(2R)-3-[[1-(3-fluoro-4-methylphenyl)-2-methylpropan-2-yl]amino]-2-hydroxypropoxy]ethyl]-3-methylbiphenyl-4-carboxylic acid]",,12 nM,,,,
"Cc1ccc(CC(C)(C)NC[C@@H](O)CO[C@H](C)c2ccccc2-c2ccc(C(=O)O)c(C)c2)cc1C [Example 1-21, 3-methyl-2′-[1-[(2R)-3-[[1-(3,4-dimethylphenyl)-2-methylpropan-2-yl]amino]-2-hydroxypropoxy]ethyl]biphenyl-4-carboxylic acid]",,13 nM,,,,
"Cc1ccc(CC(C)(C)NC[C@@H](O)CO[C@H](C)c2ccccc2-c2ccc(C(=O)O)c(C(C)(C)C)c2)cc1F [Example 1-98, 2′-[1-[(2R)-3-[[1-(3-fluoro-4-methylphenyl)-2-methylpropan-2-yl]amino]-2-hydroxypropoxy]ethyl]-3-t-butylbiphenyl-4-carboxylic acid]",,13 nM,,,,
"C[C@@H](OC[C@H](O)CNC(C)(C)Cc1ccc2ccccc2c1)c1ccccc1Cc1ccc(C(=O)O)cc1 [Example 2-14, 4-[2-[1-[(2R)-3-[[1-(naphthalen-2-yl)-2-methylpropan-2-yl]amino]-2-hydroxypropoxy]ethyl]benzyl]benzoic acid]",,53 nM,,,,
"Cc1ccc(CC(C)(C)NC[C@@H](O)CO[C@H](C)c2ccccc2Oc2ccc(C(=O)O)cc2Cl)cc1F [Example 2-30, 4-[2-[1-[(2R)-3-[[1-(3-fluoro-4-methylphenyl)-2-methylpropan-2-yl]amino]-2-hydroxypropoxy]ethyl]phenoxy]-3-chlorobenzoic acid]",,3 nM,,,,
"Cc1ccc(-c2ccccc2[C@@H](C)OC[C@H](O)CNC(C)(C)Cc2ccc3ccccc3c2)cc1C(=O)O [Example 1-85, 4-methyl-2′-[1-[(2R)-3-[[1-(naphthalen-2-yl)-2-methylpropan-2-yl]amino]-2-hydroxypropoxy]ethyl]biphenyl-3-carboxylic acid]",,4 nM,,,,
"CC(=O)Nc1cc(-c2ccccc2[C@@H](C)OC[C@H](O)CNC(C)(C)Cc2ccc3ccccc3c2)ccc1C(=O)O [Example 1-71, 3-(acetylamino)-2′-[1-[(2R)-3-[[1-(naphthalen-2-yl)-2-methylpropan-2-yl]amino]-2-hydroxypropoxy]ethyl]biphenyl-4-carboxylic acid]",,5 nM,,,,
